Assay results reported in patent US20150051203A1, “TRIAZOLE DERIVATIVES AS HSP90 INHIBITORS” (Synta Pharmaceuticals Corp., priority 2012, published 2015).
Like-named read-outs stand apart in the source and are kept apart here. Blank lines part the entries; values can stand above or below the molecule they belong to.

Columns and labels:
c-Kit = c-Kit degradation in HEL92.1.7 cells (FACS-based degradation assay); assay type: cell-based; details: treated about 18 h
Experimental: Two leukemia cell lines, HEL92.1.7 and Kasumi-1, were used for testing c-Kit degradation induced by Hsp90 inhibitors of the invention. The cells (3×10^5 per well) were treated with 17AAG (0.5 μM), or a compound of the invention for about 18 h. The cells were collected and centrifuged (SORVALL RT 6000D) at 1200 rpm for 5 min. The supernatants were discarded, and the cells were washed one time with 1×PBS. After centrifugation the cells were stained with FITC conjugated c-Kit antibody (MBL International, Cat# K0105-4) in […] 1×PBS at 4° C. for 1 h. The samples were read and analyzed with FACSCalibur flow cytometer (Becton Dicknson).
c-Kit, a tyrosine kinase receptor and one of the Hsp90 client proteins, was selected and used in a FACS-based degradation assay.

[1] = Exploratory small molecule PK study in rats; assay type: in vivo, male Sprague-Dawley rats; parameters: AUClast: unit not given here; details: rat; for half-life: male, Sprague-Dawley, plasma, read-out: T½ (converted); for F: PO 25 mg/Kg D5W vs IV 5 mg/Kg DPD
Experimental: PK studies were conducted in male Sprague-Dawley rats. One group was dosed by IV (n=2) and another group was dosed orally (n=3). Blood samples were collected in lithium heparin coated microfuge tubes at 5 (IV only), 15, 30 min, 1, 3, 4, 6, 8, 24 h post dose. Samples were then centrifuged under refrigerated conditions and plasma was collected for analysis.
A solvent-based protein precipitation procedure was used to measure the concentration of each compound in plasma and/or whole blood. Samples were analyzed with an Agilent 1100 HPLC (Santa Clara, Calif.) interfaced to an API 4000 tandem mass spectrometer (Applied Biosystems, Foster City, Calif.) using a Synergy, Hydro-RP column (4 μm, 2×50 mm; Phenomenex, Torrance, Calif.) at a flow rate of 0.5 ml/min. Mobile phase consisted of 10 mM ammonium acetate in water (A) and 10 mM ammonium acetate in 95/5 (v/v) methanol/water (B). Total run time was 5 min with the gradient elution. […] All standard curves were fit to a quadratic equation with a weighing factor of 1/(concentration)^2 to calculate compound concentrations.

Her2 [2] = assay: Fluorescent staining of Her2 on the surface of cells, FACS (BT474); assay type: cell-based, Human
Experimental: (§1) After treatment with a compound of the invention, cells are washed twice with 1×PBS/1% FBS, and then stained with anti-Her2-FITC (#340553, BD) for 30 min at 4° C. Cells are then washed three times in FACS buffer before the fixation in 0.5 ml 1% paraformadehyde. Data is acquired on a FACSCalibur system. Isotype-matched controls are used to establish the non-specific staining of samples and to set the fluorescent markers. A total 10,000 events are recorded from each sample. Data are analyzed by using CellQuest software (BD Biosciences).
as §1, with “paraformadehydrede.” for “paraformadehyde.”

Her2 [3] = assay: Her2 degradation in BT-474 cells, ICW (LI-COR Odyssey imaging); assay type: cell-based, Human; details: BT474 cells, 24 hours
Experimental: All experiments were performed on day 1 after cell passage.
BT-474 cells were plated in the interior 60 wells of a 96 well black clear bottom plate (20,000 cells/well) in DMEM medium, with DMEM media in the surrounding 36 wells, and incubated at 37° C. with 5% CO2 overnight. On the second day, concentration response curve source plates were produced (10 point, 3-fold dilution of compounds in DMSO) followed by a 1:30 dilution in an intermediate dilution plate containing DMEM. Compound was transferred from the intermediate plate to the cell plate at a dilution of 1:10. The cells were incubated at 37° C. with 5% CO2 for 24 hours.
Cells were fixed in 4% phosphate buffered paraformaldehyde for 30 minutes at room temperature and then permeabilized by washing five times with 0.1% Triton X-100 in PBS for 5 minutes at room temperature on a shaker. Cells were blocked with Odyssey Blocking Buffer (LI-COR, #927-40000) on a shaker at room temperature for 1.5 hours followed by incubation with Her2 antibody (CST, #2165) diluted 1:400 in blocking buffer overnight on a shaker at 4° C. Cells were washed five times with 0.1% Tween-20 in PBS for 5 minutes at room temperature on a shaker and incubated with fluorescently labeled secondary antibody (LI-COR, #926-32211) diluted 1:1000 in blocking buffer, and DRAQ5 nuclear stain (Biostatus Limited, #DRAQ5) diluted 1:10,000, at room temperature on a shaker for 1 hour. Cells were washed 5 times with 0.1% Tween-20 in PBS for 5 minutes at room temperature on a shaker and imaged on a LI-COR Odyssey imaging station. The raw data was normalized to DRAQ5 and the Her2 EC50 were calculated using XLfit.

IC50 (c-Kit): 500 nM
SMILES: Cc1n[nH]c2cc(O)c(-c3nnc(C(N)=O)n3-c3ccc(N4CCOCC4)cc3)cc12 [Compound 2, 5-(6-hydroxy-3-methyl-1H-indazol-5-yl)-4-(4-morpholinophenyl)-4H-1,2,4-triazole-3-carboxamide]

IC50 (c-Kit): 5000 nM
SMILES: Cc1n[nH]c2cc(O)c(-c3nnc(C(N)=O)n3-c3ccc4c(c3)OCO4)cc12 [Compound 4, 4-(benzo[d][1,3]dioxol-5-yl)-5-(6-hydroxy-3-methyl-1H-indazol-5-yl)-4H-1,2,4-triazole-3-carboxamide]

IC50 (c-Kit): 100 nM
SMILES: Cc1n[nH]c2cc(O)c(-c3nnc(C(=O)NC4CC4)n3-c3ccc(N4CCOCC4)cc3)cc12 [Compound 5, N-cyclopropyl-5-(6-hydroxy-3-methyl-1H-indazol-5-yl)-4-(4-morpholinophenyl)-4H-1,2,4-triazole-3-carboxamide]

IC50 (c-Kit): 20 nM
SMILES: CCc1n[nH]c2cc(O)c(-c3nnc(C(N)=O)n3-c3ccc(N4CCOCC4)cc3)cc12 [Compound 6, 5-(3-ethyl-6-hydroxy-1H-indazol-5-yl)-4-(4-morpholinophenyl)-4H-1,2,4-triazole-3-carboxamide]

IC50 (c-Kit): 36 nM
SMILES: CCCc1n[nH]c2cc(O)c(-c3nnc(C(=O)NC4CC4)n3-c3ccc(N4CCOCC4)cc3)cc12 [Compound 8, N-cyclopropyl-5-(6-hydroxy-3-propyl-1H-indazol-5-yl)-4-(4-morpholinophenyl)-4H-1,2,4-triazole-3-carboxamide]

IC50 (c-Kit): 40 nM
SMILES: CC(C)c1n[nH]c2cc(O)c(-c3nnc(C(N)=O)n3-c3ccc(N4CCOCC4)cc3)cc12 [Compound 9, 5-(6-hydroxy-3-isopropyl-1H-indazol-5-yl)-4-(4-morpholinophenyl)-4H-1,2,4-triazole-3-carboxamide]

IC50 (c-Kit): 7 nM
SMILES: CC(C)c1n[nH]c2cc(O)c(-c3nnc(C(=O)NC4CC4)n3-c3ccc(N4CCOCC4)cc3)cc12 [Compound 10, N-cyclopropyl-5-(6-hydroxy-3-isopropyl-1H-indazol-5-yl)-4-(4-morpholinophenyl)-4H-1,2,4-triazole-3-carboxamide]

IC50 (c-Kit): 200 nM
SMILES: CCc1n[nH]c2cc(O)c(-c3nnc(O)n3-c3ccc4c(ccn4C)c3)cc12 [Compound 29, 3-ethyl-5-(5-hydroxy-4-(1-methyl-1H-indol-5-yl)-4H-1,2,4-triazol-3-yl)-1H-indazol-6-ol]

IC50 (c-Kit): 300 nM
SMILES: CCc1n[nH]c2cc(O)c(-c3nnc(SCc4cccnc4)n3-c3ccc(N4CCOCC4)cc3)cc12 [Compound 30, 3-ethyl-5-(4-(4-morpholinophenyl)-5-(pyridin-3-ylmethylthio)-4H-1,2,4-triazol-3-yl)-1H-indazol-6-ol]

IC50 (c-Kit): > 20000 nM
SMILES: CCc1n[nH]c2cc(O)c(-c3nnc(O)n3-c3cccc(N(C)C)c3)cc12 [Compound 31, 5-(4-(3-(dimethylamino)phenyl)-5-hydroxy-4H-1,2,4-triazol-3-yl)-3-ethyl-1H-indazol-6-ol]

IC50 (c-Kit): 400 nM
SMILES: CCc1n[nH]c2cc(O)c(-c3nnc(O)n3-c3ccc(N4CCOCC4)cc3)cc12 [Compound 32, 3-ethyl-5-(5-hydroxy-4-(4-morpholinophenyl)-4H-1,2,4-triazol-3-yl)-1H-indazol-6-ol]

IC50 (c-Kit): 4000 nM
SMILES: CCc1n[nH]c2cc(O)c(-c3nnc(O)n3-c3ccc(N4CCOCC4)nc3)cc12 [Compound 33, 3-ethyl-5-(5-hydroxy-4-(6-morpholinopyridin-3-yl)-4H-1,2,4-triazol-3-yl)-1H-indazol-6-ol]

IC50 (c-Kit): > 20000 nM
SMILES: CCc1n[nH]c2cc(O)c(-c3nnc(O)n3-c3ccc4c(c3)CC(N3CCOCC3)C4)cc12 (stereo not shown) [Compound 35, 3-ethyl-5-(5-hydroxy-4-(2-morpholino-2,3-dihydro-1H-inden-5-yl)-4H-1,2,4-triazol-3-yl)-1H-indazol-6-ol]

half-life ([1]; IV 5 mg/Kg, DPD): 1.7 h
half-life ([1]; PO 25 mg/Kg, D5W): 4.3 h
AUClast ([1]; IV 5 mg/Kg, DPD): 2.52
F [1]: 197%
AUClast ([1]; PO 25 mg/Kg, D5W): 24.4
SMILES: CCNC(=O)c1nnc(-c2cc3c(C(C)C)n[nH]c3cc2O)n1-c1ccc(CN2CCOCC2)cc1 [Compound 55, N-ethyl-5-(6-hydroxy-3-isopropyl-1H-indazol-5-yl)-4-(4-(morpholinomethyl)phenyl)-4H-1,2,4-triazole-3-carboxamide]

EC50 (Her2 [2]): > 1000 nM
IC50 (c-Kit): > 1000 nM
EC50 (Her2 [3]): 300 nM
SMILES: CN1CCN(c2ccc(-n3c(O)nnc3-c3cc4c(C5CCC5)n[nH]c4cc3O)cc2)CC1 [Compound 70, 3-cyclobutyl-5-(5-hydroxy-4-(4-(4-methylpiperazin-1-yl)phenyl)-4H-1,2,4-triazol-3-yl)-1H-indazol-6-ol]

EC50 (Her2 [2]): 119 nM
IC50 (c-Kit): 106 nM
EC50 (Her2 [3]): 30 nM
SMILES: Oc1cc2[nH]nc(C3CCCC3)c2cc1-c1nnc(O)n1-c1ccc(N2CCOCC2)cc1 [Compound 71, 3-cyclopentyl-5-(5-hydroxy-4-(4-morpholinophenyl)-4H-1,2,4-triazol-3-yl)-1H-indazol-6-ol]

half-life ([1]; IV 5 mg/Kg, DPD): 1.1 h
half-life ([1]; PO 25 mg/Kg, D5W): 2.1 h
AUClast ([1]; IV 5 mg/Kg, DPD): 1.69
F [1]: 7.57%
AUClast ([1]; PO 25 mg/Kg, D5W): 0.61
SMILES: CC(C)c1n[nH]c2cc(O)c(-c3nnc(O)n3-c3ccc(N4CCN(C)CC4)cc3)cc12 [Compound 72, 5-(5-hydroxy-4-(4-(4-methylpiperazin-1-yl)phenyl)-4H-1,2,4-triazol-3-yl)-3-isopropyl-1H-indazol-6-ol]

half-life ([1]; IV 5 mg/Kg, DPD): 1.5 h
half-life ([1]; PO 25 mg/Kg, D5W): 4.2 h
AUClast ([1]; IV 5 mg/Kg, DPD): 3.96
F [1]: 13%
AUClast ([1]; PO 25 mg/Kg, D5W): 2.55
SMILES: Oc1cc2[nH]nc(C3CCCC3)c2cc1-c1nnc(O)n1-c1ccc(CN2CCOCC2)cc1 [Compound 78, 3-cyclopentyl-5-(5-hydroxy-4-(4-(morpholinomethyl)phenyl)-4H-1,2,4-triazol-3-yl)-1H-indazol-6-ol]

EC50 (Her2 [2]): 18 nM
IC50 (c-Kit): 4 nM
EC50 (Her2 [3]): 20 nM
SMILES: CC(C)c1cc(-c2n[nH]c(=O)n2-c2ccc3c(ccn3C)c2)c(O)cc1O [ganetespib, reference compound]
